Test results taken from patent US20220235064A1 (WELLMARKER BIO CO., LTD., priority 2019, published 2022).
Where a name gives a salt, the structure may show the parent alone.

Legend:
RON tyrosine kinase = biological target: T1, RON tyrosine kinase (Homo sapiens, UniProt Q04912); experiment: Enzyme inhibitory activity against RON tyrosine kinase (TR-FRET); type: biochemical; conditions: RON (Carna Bioscience)
T1 construct: purchased Carna Bioscience
In short: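 Recombinant RON was preincubated with compound for 15 min at RT in 50 mM HEPES pH 7.5, 10 mM MgCl2, 1 mM EGTA, 2 mM DTT, 0.01% Tween-20. Enzyme (0.4 nM), ATP (60 μM) and tyrosine peptide (400 nM) were prepared at 2×, 4× and 4× final. After 60 min at RT, EDTA/Eu-anti-phosphotyrosine stop; IC50 from 665 nm TR-FRET emission.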

[1] = tested on: cancer cell line KM12C, in which RON is activated; experiment: Cell growth inhibitory ability in RON-activated cancer cell line (MTS); type: cell-based; conditions: Homo sapiens, 48 hours, absorbance 490 nm
In short: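 KM12C cells (RON-activated, MEM with FBS) exposed to compound […] for 48 h. MTS added 24 h after treatment ended, incubated 4 h at 37° C, absorbance read at 490 nm. IC50 derived from absorbance.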

[2] = tested on: cancer cell line KM12C, in which RON is activated; experiment: Cell-killing efficacy in RON-activated cancer cell line (trypan blue); type: cell-based; conditions: Homo sapiens, 48 hours, trypan blue, n=2, read-out: Cell death (%) Cancer cell line KM12C
Protocol: Experimental Example 3: Measurement of Cell-Killing Efficacy of Example Compounds in RON-Activated Cancer Cell Line
The cancer cell line KM12C (80015, KCLB, MEM+10% FBS), in which RON is activated, was dispensed into each 60 mm^2 dish at 1×10^5 cells. After 24 hours, the dish was treated with each of the example compounds at a concentration of 1 μM or 5 μM while performing medium exchange, and then reaction was allowed to proceed for 48 hours. After 48 hours, centrifugation was performed for 4 minutes at 1,500 rpm to collect cells and cell fluid. Thereafter, living cells and dead cells were quantified (n=2) using a trypan blue solution (15250-061, Gibco), and statistical analysis was performed using Excel-T-test. Here, as a negative control, only a solvent (0.100 DMSO) was used; and as a positive control, N-(4-(2-amino-3-chloropyridin-4-yloxy)-3-fluorophenyl)-4-ethoxy-1-(4-fluorophenyl)-2-oxo-1,2-dihydropyridine-3-carboxamide, which is the compound of Example 1 in WO 2008/058229 A1, was used.

T1 sequence (Q04912 25-1400): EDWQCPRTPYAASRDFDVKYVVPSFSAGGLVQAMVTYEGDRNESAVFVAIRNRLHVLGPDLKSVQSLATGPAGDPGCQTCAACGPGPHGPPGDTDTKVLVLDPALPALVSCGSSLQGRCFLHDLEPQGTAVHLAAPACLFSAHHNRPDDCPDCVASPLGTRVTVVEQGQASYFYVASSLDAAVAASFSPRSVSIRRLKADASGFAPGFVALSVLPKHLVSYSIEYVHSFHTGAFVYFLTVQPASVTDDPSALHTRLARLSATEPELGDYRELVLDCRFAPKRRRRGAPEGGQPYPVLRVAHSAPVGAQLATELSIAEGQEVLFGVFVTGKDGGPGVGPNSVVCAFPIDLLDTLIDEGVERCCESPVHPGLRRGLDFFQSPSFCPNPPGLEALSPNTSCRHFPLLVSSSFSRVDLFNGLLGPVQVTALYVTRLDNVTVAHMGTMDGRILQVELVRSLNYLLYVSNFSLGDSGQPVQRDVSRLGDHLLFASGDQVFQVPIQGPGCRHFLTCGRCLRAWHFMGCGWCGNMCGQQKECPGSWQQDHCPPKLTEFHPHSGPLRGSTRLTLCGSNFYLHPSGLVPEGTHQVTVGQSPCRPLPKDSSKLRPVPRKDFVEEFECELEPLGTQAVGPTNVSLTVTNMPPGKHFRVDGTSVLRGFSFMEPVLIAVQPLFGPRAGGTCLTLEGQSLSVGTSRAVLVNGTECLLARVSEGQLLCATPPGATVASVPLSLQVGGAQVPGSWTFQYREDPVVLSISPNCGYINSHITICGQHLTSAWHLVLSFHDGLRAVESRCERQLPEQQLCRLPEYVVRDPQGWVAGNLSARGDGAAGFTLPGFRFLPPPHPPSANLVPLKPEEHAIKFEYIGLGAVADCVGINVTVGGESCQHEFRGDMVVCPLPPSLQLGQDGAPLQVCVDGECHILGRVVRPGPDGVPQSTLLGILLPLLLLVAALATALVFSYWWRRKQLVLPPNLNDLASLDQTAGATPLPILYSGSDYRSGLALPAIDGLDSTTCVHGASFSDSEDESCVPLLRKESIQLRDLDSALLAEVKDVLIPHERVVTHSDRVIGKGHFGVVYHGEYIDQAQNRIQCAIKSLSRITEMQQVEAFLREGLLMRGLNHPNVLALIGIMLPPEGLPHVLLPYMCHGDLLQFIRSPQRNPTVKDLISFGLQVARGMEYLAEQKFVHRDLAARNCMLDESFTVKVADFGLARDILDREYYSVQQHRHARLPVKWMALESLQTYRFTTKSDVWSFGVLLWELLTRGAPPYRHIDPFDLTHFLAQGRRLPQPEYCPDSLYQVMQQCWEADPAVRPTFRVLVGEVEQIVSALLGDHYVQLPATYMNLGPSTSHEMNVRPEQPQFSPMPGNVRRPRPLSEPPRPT

Row | SMILES | IC50 (RON tyrosine kinase) [nM] | IC50 [1] [nM] | cytotoxicity at 1 µM [2] [%] | cytotoxicity at 5 µM [2] [%]
1 | O=C(Nc1ccc(Oc2ccnc3cc(-c4ccccn4)sc23)c(F)c1)c1c2c(cn(-c3ccc(F)cc3)c1=O)CCO2 [Example 3, N-(3-Fluoro-4-((2-(pyridin-2-yl)thieno[3,2-b]pyridin-7-yl)oxy)phenyl)-5-(4-fluorophenyl)-6-oxo-2,3,5,6-tetrahydrofuro[3,2-c]pyridine-7-carboxamide] | 2.39 | 3 | 24.6 | 34
2 | O=C(Nc1ccc(Oc2ccnc3cc(-c4ccc(CN5CCOCC5)cn4)sc23)c(F)c1)c1c2c(cn(-c3ccc(F)cc3)c1=O)CCO2 [Example 5, N-(3-Fluoro-4-((2-(5-(morpholinomethyl)pyridin-2-yl)thieno[3,2-b]pyridin-7-yl)oxy)phenyl)-5-(4-fluorophenyl)-6-oxo-2,3,5,6-tetrahydrofuro[3,2-c]pyridine-7-carboxamide hydrochloride] | 5.87 | 4 | 21.2 | 25.9
3 | COc1cc2nccc(Oc3ccc(NC(=O)c4c5c(cn(-c6ccccc6)c4=O)CCO5)cc3F)c2cc1OC [Example 41, N-(4-((6,7-Dimethoxyquinolin-4-yl)oxy)-3-fluorophenyl)-6-oxo-5-phenyl-2,3,5,6-tetrahydrofuro[3,2-c]pyridine-7-carboxamide] | 2.86 | 2 | 16 | 21.4
4 | COc1cc2ncnc(Oc3ccc(NC(=O)c4c5c(cn(-c6ccc(F)cc6)c4=O)CCO5)cc3F)c2cc1OC [Example 46, N-(4-((6,7-Dimethoxyquinazolin-4-yl)oxy)-3-fluorophenyl)-5-(4-fluorophenyl)-6-oxo-2,3,5,6-tetrahydrofuro[3,2-c]pyridine-7-carboxamide] | 2.39 | 6 | 23.7 | 27.4
5 | COc1cc2c(Oc3ccc(NC(=O)c4c5c(cn(-c6ccc(F)cc6)c4=O)CCO5)cc3F)ccnc2cc1OCCN1CCOCC1 [Example 78, N-(3-Fluoro-4-((6-methoxy-7-(2-morpholinoethoxy)quinolin-4-yl)oxy)phenyl)-5-(4-fluorophenyl)-6-oxo-2,3,5,6-tetrahydrofuro[3,2-c]pyridine-7-carboxamide] | 2.63 | 2 | 23.5 | 23.9
6 | CNC(=O)c1cc2nccc(Oc3ccc(NC(=O)c4c5c(cn(-c6ccc(F)cc6)c4=O)CCO5)cc3F)c2cc1OCCN1CCOCC1 [Example 166, N-(3-Fluoro-4-((7-(methylcarbamoyl)-6-(2-morpholinoethoxy)quinolin-4-yl)oxy)phenyl)-5-(4-fluorophenyl)-6-oxo-2,3,5,6-tetrahydrofuro[3,2-c]pyridine-7-carboxamide] | 1.9 | 16 | 11.4 | 14.9
7 | O=C(Nc1ccc(Oc2ccnc3cc(OCCCN4CCOCC4)c(Cl)cc23)c(F)c1)c1c2c(cn(-c3ccc(F)cc3)c1=O)CCO2 [Example 172, N-(4-((6-Chloro-7-(3-morpholinopropoxy)quinolin-4-yl)oxy)-3-fluorophenyl)-5-(4-fluorophenyl)-6-oxo-2,3,5,6-tetrahydrofuro[3,2-c]pyridine-7-carboxamide] | 7.44 | 15 | 3.19 | 11.6
8 | COc1cc2nccc(Oc3ccc(NC(=O)c4c5c(cn(-c6ccc(F)cc6)c4=O)CCO5)cc3F)c2cc1NCCCN1CCOCC1 [Example 186, N-(3-Fluoro-4-((7-methoxy-6-((3-morpholinopropyl)amino)quinolin-4-yl)oxy)phenyl)-5-(4-fluorophenyl)-6-oxo-2,3,5,6-tetrahydrofuro[3,2-c]pyridine-7-carboxamide] | 7.52 | 3 |  | 

These reach a lower IC50 (RON tyrosine kinase). Values come first.

Row | IC50 (RON tyrosine kinase) [nM] | IC50 [1] [nM] | SMILES | cytotoxicity at 1 µM [2] [%] | cytotoxicity at 5 µM [2] [%]
9 | 1.46 | 1 | CNC(=O)c1cc2c(Oc3ccc(NC(=O)c4c5c(cn(-c6ccc(F)cc6)c4=O)CCO5)cc3F)ccnc2cc1OCCCN1CCOCC1 [Example 164, N-(3-Fluoro-4-((6-(methylcarbamoyl)-7-(3-morpholinopropoxy)quinolin-4-yl)oxy)phenyl)-5-(4-fluorophenyl)-6-oxo-2,3,5,6-tetrahydrofuro[3,2-c]pyridine-7-carboxamide] | 19.4 | 29.7
10 | 1.43 | 2 | O=C(Nc1ccc(Oc2ccnc3cc(-c4ccc(CN5CCOCC5)cn4)sc23)c(F)c1)c1c2c(cn(-c3ccccc3)c1=O)CCO2 [Example 6, N-(3-Fluoro-4-((2-(5-(morpholinomethyl)pyridin-2-yl)thieno[3,2-b]pyridin-7-yl)oxy)phenyl)-6-oxo-5-phenyl-2,3,5,6-tetrahydrofuro[3,2-c]pyridine-7-carboxamide hydrochloride] | 29.3 | 34.3
11 | 1.3 | 3 | COc1cc2c(Oc3ccc(NC(=O)c4c5c(cn(-c6ccc(F)cc6)c4=O)CCO5)cc3F)ccnc2cc1OCCCN1CCN(C)CC1 [Example 80, N-(3-Fluoro-4-((6-methoxy-7-(3-(4-methylpiperazin-1-yl)propoxy)quinolin-4-yl)oxy)phenyl)-5-(4-fluorophenyl)-6-oxo-2,3,5,6-tetrahydrofuro[3,2-c]pyridine-7-carboxamide] | 19.5 | 19.9
12 | 1.18 | 2 | COc1cc2nccc(Oc3ccc(NC(=O)c4c5c(cn(-c6ccc(F)cc6)c4=O)CCO5)cc3F)c2cc1C(=O)NCCN1CCOCC1 [Example 50, N-(3-Fluoro-4-((7-methoxy-6-((2-morpholinoethyl)carbamoyl)quinolin-4-yl)oxy)phenyl)-5-(4-fluorophenyl)-6-oxo-2,3,5,6-tetrahydrofuro[3,2-c]pyridine-7-carboxamide] | 19.4 | 32.3
13 | 1.01 | 6 | CN1CCN(CCCOc2ccc3c(Oc4ccc(NC(=O)c5c6c(cn(-c7ccc(F)cc7)c5=O)CCO6)cc4F)ccnc3c2)CC1 [Example 160, N-(3-Fluoro-4-((7-(3-(4-methylpiperazin-1-yl)propoxy)quinolin-4-yl)oxy)phenyl)-5-(4-fluorophenyl)-6-oxo-2,3,5,6-tetrahydrofuro[3,2-c]pyridine-7-carboxamide] | 12.7 | 19.4
14 | 0.85 | 1 | CNC(=O)c1cc2c(Oc3ccc(NC(=O)c4c5c(cn(-c6ccc(F)cc6)c4=O)CCO5)cc3F)ccnc2cc1OC [Example 48, N-(3-Fluoro-4-((7-methoxy-6-(methylcarbamoyl)quinolin-4-yl)oxy)phenyl)-5-(4-fluorophenyl)-6-oxo-2,3,5,6-tetrahydrofuro[3,2-c]pyridine-7-carboxamide] | 18.9 | 15.5
15 | 0.61 | 7 | O=C(Nc1ccc(Oc2ccnc3cc(OCCCN4CCCCC4)ccc23)c(F)c1)c1c2c(cn(-c3ccc(F)cc3)c1=O)CCO2 [Example 161] | 23.4 | 22
16 | 0.47 | 2 | COc1cc2nccc(Oc3ccc(NC(=O)c4c5c(cn(-c6ccc(F)cc6)c4=O)CCO5)cc3F)c2cc1C(N)=O [Example 47, N-(4-((6-Carbamoyl-7-methoxyquinolin-4-yl)oxy)-3-fluorophenyl)-5-(4-fluorophenyl)-6-oxo-2,3,5,6-tetrahydrofuro[3,2-c]pyridine-7-carboxamide] | 18 | 30.9
17 | 0.47 | 3 | COc1cc2nccc(Oc3ccc(NC(=O)c4c5c(cn(-c6ccc(F)cc6)c4=O)CCO5)cc3F)c2cc1N [Example 179, N-(4-((6-Amino-7-methoxyquinolin-4-yl)oxy)-3-fluorophenyl)-5-(4-fluorophenyl)-6-oxo-2,3,5,6-tetrahydrofuro[3,2-c]pyridine-7-carboxamide] |  | 
18 | 0.45 | 3 | CNC(=O)c1cc2nccc(Oc3ccc(NC(=O)c4c5c(cn(-c6ccc(F)cc6)c4=O)CCO5)cc3F)c2cc1OC [Example 165, N-(3-Fluoro-4-((6-methoxy-7-(methylcarbamoyl)quinolin-4-yl)oxy)phenyl)-5-(4-fluorophenyl)-6-oxo-2,3,5,6-tetrahydrofuro[3,2-c]pyridine-7-carboxamide] | 7.3 | 32.9
